Assay results from US20190374554A1, “USE OF OXYGENATED CHOLESTEROL SULFATES (OCS) TO TREAT INFLAMMATORY SKIN DISEASE AND SKIN LESIONS” (Virginia Commonwealth University, priority 2016, published 2019).

Experiment: Infusion compatibility: 25HC3S diluted in 0.9% sodium chloride infusion bag and eluted through infusion sets (potency, osmolality, pH, appearance)
Format: physicochemical
Experimental: A physical and chemical compatibility study was conducted at a 30 mg, 48 mg and 300 mg 25HC3S dose in 5% dextrose and 0.9% sodium chloride infusion bags. Descriptions of the two kinds of infusion sets tested with 25HC3S product diluted in 5% dextrose and 0.9% sodium chloride are listed in Table 15. The tubing in catalog number 2H8480 infusion set was composed of polyvinylchloride (PVC), while the tubing in catalog number 2C8858 was polyethylene lined except for a short pump segment (approximately 12 inches) which was composed of PVC.
25HC3S for Injection and Vehicle for 25HC3S for Injection, that had been stored at 2-8° C. for approximately 16 months, were used for the compatibility study. After constitution, 30 mg (1.0 mL of constituted product), 48 mg (1.6 mL of constituted product) or 300 mg (10 mL of constituted product) were added to 100 mL infusion bags of 5% dextrose and 0.9% sodium chloride, mixed thoroughly, and stored for 24 hours at room temperature and at 2-8° C. […] Taking into consideration the overfill per infusion bag and the additional volume introduced by adding the constituted 25HC3S product to each bag, the expected concentrations of 25HC3S were 0.28 mg/mL, 0.44 mg/mL, and 2.56 mg/mL in the infusion bags. Two kinds of infusion sets were then attached to the drug containing infusion bags, and the entire contents were eluted through the infusion sets at approximately 50 mL/hour at room temperature. Samples were collected from the 25HC3S prepared infusion bags at T=0 and at 24 hours, and from the total eluent passed through the infusion sets, and tested for 25HC3S concentration using HPLC. Solution visual appearance, osmolality (using method USP<785>), and pH (using method USP<791>) were also measured on the collected samples.

[1] = 0.9% sodium chloride, approx. 0.28 mg/mL, bag 24 h at 25° C., Baxter 2H8480
[2] = 0.9% sodium chloride, approx. 0.44 mg/mL, bag 24 h at 2-8° C., Baxter 2C8858
[3] = 0.9% sodium chloride, approx. 0.44 mg/mL, bag 24 h at 2-8° C., Baxter 2H8480
[4] = 0.9% sodium chloride, approx. 0.44 mg/mL, bag 24 h at 25° C., Baxter 2C8858
[5] = 0.9% sodium chloride, approx. 0.44 mg/mL, bag 24 h at 25° C., Baxter 2H8480
[6] = 0.9% sodium chloride, approx. 2.56 mg/mL, bag 24 h at 2-8° C., Baxter 2C8858
[7] = 0.9% sodium chloride, approx. 2.56 mg/mL, bag 24 h at 2-8° C., Baxter 2H8480
[8] = 0.9% sodium chloride, approx. 2.56 mg/mL, bag 24 h at 25° C., Baxter 2C8858
[9] = 0.9% sodium chloride, approx. 2.56 mg/mL, bag 24 h at 25° C., Baxter 2H8480
[10] = sodium chloride, approximately 0.28 mg/mL 25HC3S
[11] = sodium chloride, approximately 0.44 mg/mL 25HC3S
[12] = sodium chloride, approximately 2.56 mg/mL 25HC3S

SMILES: C[C@H](CCCC(C)(C)O)[C@H]1CC[C@H]2[C@@H]3CC=C4C[C@@H](OS(=O)(=O)[O-])CC[C@]4(C)[C@H]3CC[C@]12C.[Na+] [Formulation 25HC3S, 5-cholesten-3, 25-diol, 3-sulfate]
- After Storage in Infusion Bag and Collection from Infusion Set Concentration [1]: 0.272 mg/mL
- After Storage in Infusion Bag and Collection from Infusion Set Osmolality [1]: 276 mmol/kg
- After Storage in Infusion Bag and Collection from Infusion Set pH [1]: 5.78
- After Storage in Infusion Bag and Collection from Infusion Set % Remaining Compared to T = 0 [2]: (100.2%)
- After Storage in Infusion Bag and Collection from Infusion Set Concentration [2]: 0.426 mg/mL
- After Storage in Infusion Bag and Collection from Infusion Set Osmolality [2]: 281 mmol/kg
- After Storage in Infusion Bag and Collection from Infusion Set pH [2]: 7.16
- After Storage in Infusion Bag and Collection from Infusion Set % Remaining Compared to T = 0 [3]: (100.0%)
- After Storage in Infusion Bag and Collection from Infusion Set Concentration [3]: 0.434 mg/mL
- After Storage in Infusion Bag and Collection from Infusion Set Osmolality [3]: 282 mmol/kg
- After Storage in Infusion Bag and Collection from Infusion Set pH [3]: 7.13
- After Storage in Infusion Bag and Collection from Infusion Set % Remaining Compared to T = 0 [4]: (100.0%)
- After Storage in Infusion Bag and Collection from Infusion Set Concentration [4]: 0.424 mg/mL
- After Storage in Infusion Bag and Collection from Infusion Set Osmolality [4]: 288 mmol/kg
- After Storage in Infusion Bag and Collection from Infusion Set pH [4]: 7.20
- After Storage in Infusion Bag and Collection from Infusion Set % Remaining Compared to T = 0 [5]: (99.8%)
- After Storage in Infusion Bag and Collection from Infusion Set Concentration [5]: 0.433 mg/mL
- After Storage in Infusion Bag and Collection from Infusion Set Osmolality [5]: 286 mmol/kg
- After Storage in Infusion Bag and Collection from Infusion Set pH [5]: 7.09
- After Storage in Infusion Bag and Collection from Infusion Set % Remaining Compared to T = 0 [6]: (99.8%)
- After Storage in Infusion Bag and Collection from Infusion Set Concentration [6]: 2.520 mg/mL
- After Storage in Infusion Bag and Collection from Infusion Set Osmolality [6]: 283 mmol/kg
- After Storage in Infusion Bag and Collection from Infusion Set pH [6]: 5.70
- After Storage in Infusion Bag and Collection from Infusion Set % Remaining Compared to T = 0 [7]: (100.0%)
- After Storage in Infusion Bag and Collection from Infusion Set Concentration [7]: 2.530 mg/mL
- After Storage in Infusion Bag and Collection from Infusion Set Osmolality [7]: 283 mmol/kg
- After Storage in Infusion Bag and Collection from Infusion Set pH [7]: 5.72
- After Storage in Infusion Bag and Collection from Infusion Set % Remaining Compared to T = 0 [8]: (99.6%)
- After Storage in Infusion Bag and Collection from Infusion Set Concentration [8]: 2.520 mg/mL
- After Storage in Infusion Bag and Collection from Infusion Set Osmolality [8]: 279 mmol/kg
- After Storage in Infusion Bag and Collection from Infusion Set pH [8]: 5.83
- After Storage in Infusion Bag and Collection from Infusion Set % Remaining Compared to T = 0 [9]: (100.4%)
- After Storage in Infusion Bag and Collection from Infusion Set Concentration [9]: 2.460 mg/mL
- After Storage in Infusion Bag and Collection from Infusion Set Osmolality [9]: 283 mmol/kg
- After Storage in Infusion Bag and Collection from Infusion Set pH [9]: 5.81
- deviation of 25HC3S concentrations from the initial T=0 time point (0.9% sodium chloride, after 24 hours at room temperature and at 2-8° C., and after elution through infusion sets): ≤ 2.0%
- osmolality trend (sodium chloride drug containing solutions): no consistent trends over time in the infusion bag or after elution through the infusion sets
- solution visual appearance (sodium chloride, all three concentrations, after 24 hours in bags and after elution): remained as clear and colorless solutions
- decrease of pH over 24 hours in the infusion bags [10]: ~0.5 pH unit
- pH change after elution through the infusion sets [10]: decrease by approximately a tenth of a pH
- pH change after elution through the infusion sets [11]: decrease by a few tenths of a pH
- pH trend over time in the infusion bags [11]: no consistent trends over time in the infusion bags
- pH change after elution through the infusion sets [12]: drop by a few tenths of a pH
- pH change over time in the infusion bags [12]: slight decrease by a tenth of a pH
